Data set [1] can be described thus: in vitro. The note with it: CD1, mouse, liver microsomes. Background: Liver microsomes are vesicles of endoplasmic reticulum, rich in cytochrome P450 enzymes.
Description: Metabolic stability in CD1 mouse liver microsomes at 10 uM after 30 mins
A short description of data set [2]: in vitro. The note with it: human, liver microsomes.
Description: Metabolic stability in human liver microsomes at 10 uM after 30 mins
A short description of data set [3]: Aqueous solubility at pH 7.4 by turbidimetric assay. Format: physicochemical.
Data set [4] can be described thus: in vivo. The note with it: CD1, mouse, po, 10 mg/kg.
A short description of data set [5]: in vivo. The note with it: rat, po, 10 mg/kg.
For data set [6], the target named is Phosphatidylinositol 4,5-bisphosphate 3-kinase catalytic subunit alpha isoform (Homo sapiens, UniProt P42336).
Sequence of Phosphatidylinositol 4,5-bisphosphate 3-kinase catalytic subunit alpha isoform (P42336 whole entry, canonical isoform): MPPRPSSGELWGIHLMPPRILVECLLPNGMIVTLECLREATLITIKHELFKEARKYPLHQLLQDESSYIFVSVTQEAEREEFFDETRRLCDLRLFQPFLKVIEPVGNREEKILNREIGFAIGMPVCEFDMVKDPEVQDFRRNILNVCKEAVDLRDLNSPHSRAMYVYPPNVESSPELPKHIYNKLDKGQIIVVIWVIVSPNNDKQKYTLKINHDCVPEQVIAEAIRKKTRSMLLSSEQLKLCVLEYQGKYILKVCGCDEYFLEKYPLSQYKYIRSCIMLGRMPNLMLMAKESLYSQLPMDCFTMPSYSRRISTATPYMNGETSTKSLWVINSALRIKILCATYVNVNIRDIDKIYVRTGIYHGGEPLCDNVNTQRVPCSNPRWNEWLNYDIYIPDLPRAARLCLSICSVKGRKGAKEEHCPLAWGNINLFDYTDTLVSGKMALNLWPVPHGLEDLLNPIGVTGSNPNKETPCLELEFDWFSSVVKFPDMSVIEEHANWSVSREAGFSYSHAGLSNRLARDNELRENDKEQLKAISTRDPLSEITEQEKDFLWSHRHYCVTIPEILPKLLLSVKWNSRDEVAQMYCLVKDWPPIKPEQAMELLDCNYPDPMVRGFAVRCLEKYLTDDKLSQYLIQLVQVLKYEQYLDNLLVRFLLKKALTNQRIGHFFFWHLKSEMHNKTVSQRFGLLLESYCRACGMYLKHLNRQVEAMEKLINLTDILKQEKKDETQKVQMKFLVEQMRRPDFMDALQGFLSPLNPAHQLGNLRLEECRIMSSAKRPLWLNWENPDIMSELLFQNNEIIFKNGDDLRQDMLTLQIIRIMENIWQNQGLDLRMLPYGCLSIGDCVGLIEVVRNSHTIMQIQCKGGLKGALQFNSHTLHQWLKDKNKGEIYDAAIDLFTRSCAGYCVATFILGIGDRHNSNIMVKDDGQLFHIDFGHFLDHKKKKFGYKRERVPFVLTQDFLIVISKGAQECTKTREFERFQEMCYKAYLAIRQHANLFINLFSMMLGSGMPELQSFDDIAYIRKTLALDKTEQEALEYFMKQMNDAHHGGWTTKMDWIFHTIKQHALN
Description: Inhibition of human recombinant PI3K p110alpha expressed in Sf9 cells coexpressing p85alpha by radiometric scintillation proximity assay

The structures appear in SMILES notation.

Regarding `COCCN(C)Cc1cc2nc(-c3cccc(O)c3)nc(N3CCOCC3)c2s1`, the fraction remaining – broadly, the share of the starting amount still present when the sample was taken – at 0.5 h, 10 µM in the data set “in vitro [1]” is 13%; in “in vitro [2]” it was 57%. Besides, the kinetic solubility – broadly, the concentration staying in solution when a stock, usually in DMSO, is diluted into the medium – in data set [3] was greater than 100 µM.

For the compound `CN(C)Cc1cc2nc(-c3cccc(O)c3)nc(N3CCOCC3)c2s1`, the amount remaining at 0.5 h, 10 µM in the data set “in vitro [1]” is 32%; in “in vitro [2]” it was 74%. For the same compound, the bioavailability (as a rule, dose-corrected exposure relative to a reference, in per cent) in the data set “in vivo [4]” stood at 11%.

Regarding `Oc1cccc(-c2nc(N3CCOCC3)c3sccc3n2)c1`, the fraction remaining at 0.5 h, 10 µM stood at 25% in “in vitro [1]” and 32% in the data set “in vitro [2]”.

Regarding `CN1CCN(Cc2cc3nc(-c4cccc(O)c4)nc(N4CCOCC4)c3s2)CC1`, the share remaining at 0.5 h, 10 µM in the data set “in vitro [1]” and in “in vitro [2]” was 85% throughout. In addition, the values for the bioavailability in the data set “in vivo [5]” and in the data set “in vivo [4]” were 2% and 10%, respectively. Moreover, the kinetic solubility in data set [3] was greater than 100 µM.

Take `Cc1cc2nc(-c3cccc(O)c3)nc(N3CCOCC3)c2s1`: in the data set “in vitro [1]”, the share remaining at 0.5 h, 10 µM is 64%.

For `Cc1csc2c(N3CCOCC3)nc(-c3cccc(O)c3)nc12`, the amount remaining at 0.5 h, 10 µM in the data set “in vitro [1]” is 5%; in “in vitro [2]”, 51%. Half-maximal inhibition in data set [6] (IC50) was put at 21 nM.

`OCCN1CCN(Cc2cc3nc(-c4cccc(O)c4)nc(N4CCOCC4)c3s2)CC1`: the amount remaining at 0.5 h, 10 µM in “in vitro [1]” and in the data set “in vitro [2]” was 90% throughout. Moreover, the bioavailability came to 0% in the data set “in vivo [5]” and 7% in the data set “in vivo [4]”. In data set [3], this compound registered a kinetic solubility greater than 100 µM.

On to `CN1CCN(Cc2cc3nc(-c4cccc5[nH]ncc45)nc(N4CCOCC4)c3s2)CC1`, for which the fraction remaining at 0.5 h, 10 µM in “in vitro [1]” and in the data set “in vitro [2]” was 81% in each case. For the same compound, the bioavailability in “in vivo [5]” stood at 37%; in the data set “in vivo [4]”, 31%.

On to `c1cc2nc(-c3ccc4cn[nH]c4c3)nc(N3CCOCC3)c2s1`, for which, in data set [6], the IC50 (usually the concentration needed to halve the response being measured) was 2450 nM.

(Values after ChEMBL document CHEMBL1140078 (J Med Chem, 2008).)
